Experiments:
[1] = molecular target: T1, SHIP1 (Src homology 2 domain-containing inositol-5-phosphatase 1) (Homo sapiens, UniProt Q92835); assay: malachite green phosphate assay with PI([…])P3 diC8 on recombinant phosphatase domain; format: biochemical
T1 construct: gene INPP5D; Recombinant His-tagged human SHIP1 phosphatase domain
T1 sequence (Q92835 399-715 limits assumed): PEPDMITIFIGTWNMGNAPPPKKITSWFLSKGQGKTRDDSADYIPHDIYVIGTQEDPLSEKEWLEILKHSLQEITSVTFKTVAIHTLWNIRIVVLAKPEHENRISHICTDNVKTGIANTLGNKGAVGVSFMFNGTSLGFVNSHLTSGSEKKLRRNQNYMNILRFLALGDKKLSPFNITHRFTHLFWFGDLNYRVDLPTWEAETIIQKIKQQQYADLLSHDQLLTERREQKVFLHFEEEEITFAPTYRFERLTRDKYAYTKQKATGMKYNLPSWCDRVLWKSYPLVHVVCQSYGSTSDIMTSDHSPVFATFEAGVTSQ

[2] = molecular target: T2, SHIP2 (Src homology 2 domain-containing inositol-5-phosphatase 2) (Homo sapiens, UniProt O15357); assay: as above; format: biochemical
T2 construct: gene INPPL1; Recombinant His-tagged human SHIP2 phosphatase domain
T2 sequence (O15357 419-732 limits assumed): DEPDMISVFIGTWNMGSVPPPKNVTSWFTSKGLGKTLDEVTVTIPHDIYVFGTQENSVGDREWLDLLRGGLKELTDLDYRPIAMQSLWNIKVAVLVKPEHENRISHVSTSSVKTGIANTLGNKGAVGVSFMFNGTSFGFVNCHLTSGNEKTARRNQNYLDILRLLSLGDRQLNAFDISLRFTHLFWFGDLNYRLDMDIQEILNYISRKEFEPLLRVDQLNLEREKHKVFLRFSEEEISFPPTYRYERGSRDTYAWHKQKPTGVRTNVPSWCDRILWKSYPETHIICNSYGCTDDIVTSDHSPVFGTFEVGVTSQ

- IC50 [1]: 1810 nM
- IC50 [2]: 480 nM
SMILES: O=c1c2ccccc2[se]n1-c1ccccc1 [ebselen]
